From patent US20130101530A1, “ANTIMICROBIAL PRESERVATIVE COMPOSITIONS FOR PERSONAL CARE PRODUCTS” (GALAXY SURFACTANTS LTD., priority 2011, published 2013)
≈ marks a conversion by molar mass, not a printed value. Like-named read-outs stand apart in the source and are kept apart here.

Legend:
Assay type in all cases: cell-based
[1] = tested on: Propionibacterium acnes MTCC 1951; test: Minimum inhibitory concentration; conditions: for MIC: Cutibacterium acnes
[2] = tested on: Pseudomonas aeruginosa Immuno type IV; test: Minimum inhibitory concentration
[3] = tested on: Escherichia coli ATCC 10142; test: Minimum inhibitory concentration
[4] = tested on: Staphylococcus aureus ATCC 6538S; test: Minimum inhibitory concentration; conditions: for MIC: ATCC6538S
[5] = tested on: Candida albicans ATCC 10231; test: Minimum inhibitory concentration
[6] = tested on: Bacillus subtilis ATCC 9372; test: microbe, parasite or virus in culture; conditions: for MIC: ATCC9372
[7] = tested on: Aspergillus niger ATCC 16404; test: Minimum inhibitory concentration
[8] = tested on: all types of microbes (Gram positive, Gram negative bacteria, yeast and mould; the chosen eight organisms); test: Minimum inhibitory concentration, whole panel
[9] = tested on: Malassezia furfur MTCC 1374; test: Minimum inhibitory concentration
[10] = Bacillus subtilis ATCC 9372, read-out: MINIMUM INHIBITORY CONCENTRATION
[11] = in Preservative Blend No 1 (10:10:80), Bacillus subtilis, read-out: Concentration of individual component at MIC of Preservative Blend No 1

`OCCOc1ccccc1` [Phenoxy ethanol, 2-Phenoxy ethanol] showed an MIC ([1]; MTCC1951, read-out: Concentration of individual component at MIC of Preservative Blend No 1) of 2400 µg/mL, an MIC ([1]; MTCC1951, read-out: Concentration of individual component at MIC of Preservative Blend No 2) of 1600 µg/mL and an MIC ([1]; MTCC1951, read-out: MINIMUM INHIBITORY CONCENTRATION) of 4000 µg/mL (≈ 29 mM). For the same molecule, the MIC ([2]; Pseudomonas aeruginosa, read-out: Concentration of individual component at MIC of Preservative Blend No 1) was 1600 µg/mL, the MIC ([2]; Pseudomonas aeruginosa, read-out: Concentration of individual component at MIC of Preservative Blend No 2) was 2400 µg/mL and the MIC ([2]; Pseudomonas aeruginosa, read-out: MINIMUM INHIBITORY CONCENTRATION) was 4000 µg/mL (≈ 29 mM). For the same molecule, the MIC ([3]; Escherichia coli, ATCC10142, read-out: Concentration of individual component at MIC of Preservative Blend No 1) was 1600 µg/mL, the MIC ([3]; Escherichia coli, ATCC10142, read-out: Concentration of individual component at MIC of Preservative Blend No 2) was 2400 µg/mL and the MIC ([3]; Escherichia coli, ATCC10142, read-out: MINIMUM INHIBITORY CONCENTRATION) was 6000 µg/mL (≈ 43.4 mM). For the same molecule, the MIC ([4]; Staphylococcus aureus, read-out: Concentration of individual component at MIC of Preservative Blend No 1) was 1600 µg/mL, the MIC ([4]; Staphylococcus aureus, read-out: Concentration of individual component at MIC of Preservative Blend No 2) was 2400 µg/mL and the MIC ([4]; Staphylococcus aureus, read-out: MINIMUM INHIBITORY CONCENTRATION) was 8500 µg/mL (≈ 61.5 mM). The MIC ([5]; Candida albicans, ATCC10231, read-out: Concentration of individual component at MIC of Preservative Blend No 1) was 2400 µg/mL, the MIC ([5]; Candida albicans, ATCC10231, read-out: Concentration of individual component at MIC of Preservative Blend No 2) was 1600 µg/mL and the MIC ([5]; Candida albicans, ATCC10231, read-out: MINIMUM INHIBITORY CONCENTRATION) was 6000 µg/mL (≈ 43.4 mM). For the same molecule, the “Concentration enough to kill the organism in combination with components [A] and [B]” value ([5]; in Preservative Blend No 1, Candida) was “around 0.25%”, the MIC [6, 10] was 4000 µg/mL (≈ 29 mM) and the MIC [6, 11] was 1600 µg/mL. The MIC ([6]; in Preservative Blend No 2 (10:10:80), Bacillus subtilis, read-out: Concentration of individual component at MIC of Preservative Blend No 2) was 1600 µg/mL, the MIC ([7]; Aspergillus niger, ATCC16404, read-out: Concentration of individual component at MIC of Preservative Blend No 1) was 2400 µg/mL and the MIC ([7]; Aspergillus niger, ATCC16404, read-out: Concentration of individual component at MIC of Preservative Blend No 2) was 1600 µg/mL. For the same molecule, the MIC ([7]; Aspergillus niger, ATCC16404, read-out: MINIMUM INHIBITORY CONCENTRATION) was 9000 µg/mL (≈ 65.1 mM), the “Concentration enough to kill the organism in combination with components [A] and [B]” value ([7]; in Preservative Blend No 1; Aspergillus) was “around 0.25%” and the “Activity against yeast and mould” value ([8]; ingredient alone, Aspergillus and Candida) was “virtually no activity”. For the same molecule, the Activity against bacteria ([8]; ingredient alone, particularly Gram positive) was “weak activity”, the MIC ([9]; Malassezia furfur, MTCC1374, read-out: Concentration of individual component at MIC of Preservative Blend No 1) was 3200 µg/mL and the MIC ([9]; Malassezia furfur, MTCC1374, read-out: Concentration of individual component at MIC of Preservative Blend No 2) was 3200 µg/mL. The MIC ([9]; Malassezia furfur, MTCC1374, read-out: MINIMUM INHIBITORY CONCENTRATION) was 4000 µg/mL (≈ 29 mM).

`CCCCCCCC(=O)NCC(=O)O` [Octanoyl Glycine, N-Octanoyl glycine] gave an MIC ([1]; MTCC1951, Propionibacterium acnes MTCC 1951, read-out: MINIMUM INHIBITORY CONCENTRATION) of 3000 µg/mL (≈ 14.9 mM), an MIC ([1]; MTCC1951, in Preservative Blend No 1 (10:10:80), Propionibacterium acnes, read-out: Concentration of individual component at MIC of Preservative Blend No 1) of 300 µg/mL and an MIC ([2]; Pseudomonas aeruginosa Immuno type IV, read-out: MINIMUM INHIBITORY CONCENTRATION) of 3000 µg/mL (≈ 14.9 mM). It also gave an MIC ([2]; in Preservative Blend No 1 (10:10:80), Pseudomonas aeruginosa, read-out: Concentration of individual component at MIC of Preservative Blend No 1) of 200 µg/mL, an MIC ([3]; ATCC10142, Escherichia coli ATCC 10142, read-out: MINIMUM INHIBITORY CONCENTRATION) of 3000 µg/mL (≈ 14.9 mM) and an MIC ([3]; ATCC10142, in Preservative Blend No 1 (10:10:80), Escherichia coli, read-out: Concentration of individual component at MIC of Preservative Blend No 1) of 200 µg/mL. For the same molecule, the MIC ([4]; Staphylococcus aureus ATCC 6538S, read-out: MINIMUM INHIBITORY CONCENTRATION) was 3000 µg/mL (≈ 14.9 mM), the MIC ([4]; in Preservative Blend No 1 (10:10:80), Staphylococcus aureus, read-out: Concentration of individual component at MIC of Preservative Blend No 1) was 200 µg/mL and the MIC ([5]; ATCC10231, Candida albicans ATCC 10231, read-out: MINIMUM INHIBITORY CONCENTRATION) was 4000 µg/mL (≈ 19.9 mM). The MIC ([5]; ATCC10231, in Preservative Blend No 1 (10:10:80), Candida albicans, read-out: Concentration of individual component at MIC of Preservative Blend No 1) was 300 µg/mL, the MIC [6, 10] was 3000 µg/mL (≈ 14.9 mM) and the MIC [6, 11] was 200 µg/mL. It also gave an MIC ([7]; ATCC16404; in Preservative Blend No 1 (10:10:80); Aspergillus niger; read-out: Concentration of individual component at MIC of Preservative Blend No 1) of 300 µg/mL, an MIC ([7]; Aspergillus niger, ATCC16404; read-out: MINIMUM INHIBITORY CONCENTRATION) of 4000 µg/mL (≈ 19.9 mM) and an MIC ([9]; MTCC1374, Malassezia furfur MTCC 1374, read-out: MINIMUM INHIBITORY CONCENTRATION) of 3000 µg/mL (≈ 14.9 mM). It also gave an MIC ([9]; MTCC1374, in Preservative Blend No 1 (10:10:80), Malassezia furfur, read-out: Concentration of individual component at MIC of Preservative Blend No 1) of 400 µg/mL.

`C=CCCCCCCCCC(=O)NCCO` [Undecylenoyl MEA amide, N-undecylenoyl monoethanol amide] was tested, and the “MINIMUM INHIBITORY CONCENTRATION” value ([1]; Propionibacterium acnes MTCC 1951) was over 10000 ppm, the “Concentration of individual component at MIC of Preservative Blend No 1” value (“Concentration … of Preservative Blend No 1” for short) ([1]; in Preservative Blend No 1 (10:10:80), Propionibacterium acnes) was 300 ppm and the “Concentration of individual component at MIC of Preservative Blend No 2” value (shortened to “Concentration … of Preservative Blend No 2”) ([1]; in Preservative Blend No 2 (10:10:80), Propionibacterium acnes) was 200 ppm. The “MINIMUM INHIBITORY CONCENTRATION” value ([2]; Pseudomonas aeruginosa Immuno type IV) was over 10000 ppm, the “Concentration … of Preservative Blend No 1” value ([2]; in Preservative Blend No 1 (10:10:80), Pseudomonas aeruginosa) was 200 ppm and the “Concentration … of Preservative Blend No 2” value ([2]; in Preservative Blend No 2 (10:10:80), Pseudomonas aeruginosa) was 300 ppm. For the same molecule, the “MINIMUM INHIBITORY CONCENTRATION” value ([3]; Escherichia coli ATCC 10142) was over 10000 ppm, the “Concentration … of Preservative Blend No 1” value ([3]; in Preservative Blend No 1 (10:10:80), Escherichia coli) was 200 ppm and the “Concentration … of Preservative Blend No 2” value ([3]; in Preservative Blend No 2 (10:10:80), Escherichia coli) was 300 ppm. The “MINIMUM INHIBITORY CONCENTRATION” value ([4]; Staphylococcus aureus ATCC 6538S) was over 10000 ppm, the “Concentration … of Preservative Blend No 1” value ([4]; in Preservative Blend No 1 (10:10:80), Staphylococcus aureus) was 200 ppm and the “Concentration … of Preservative Blend No 2” value ([4]; in Preservative Blend No 2 (10:10:80), Staphylococcus aureus) was 300 ppm. The “MINIMUM INHIBITORY CONCENTRATION” value ([5]; Candida albicans ATCC 10231) was over 10000 ppm, the “Concentration … of Preservative Blend No 1” value ([5]; in Preservative Blend No 1 (10:10:80), Candida albicans) was 300 ppm and the “Concentration … of Preservative Blend No 2” value ([5]; in Preservative Blend No 2 (10:10:80), Candida albicans) was 200 ppm. For the same molecule, the “MINIMUM INHIBITORY CONCENTRATION” value ([6]; Bacillus subtilis ATCC 9372) was over 10000 ppm, the “Concentration … of Preservative Blend No 1” value ([6]; in Preservative Blend No 1 (10:10:80), Bacillus subtilis) was 200 ppm and the “Concentration … of Preservative Blend No 2” value ([6]; in Preservative Blend No 2 (10:10:80), Bacillus subtilis) was 200 ppm. For the same molecule, the “MINIMUM INHIBITORY CONCENTRATION” value ([7]; Aspergillus niger) was over 10000 ppm, the “Concentration … of Preservative Blend No 1” value ([7]; in Preservative Blend No 1 (10:10:80); Aspergillus niger) was 300 ppm and the “Concentration … of Preservative Blend No 2” value ([7]; in Preservative Blend No 2 (10:10:80); Aspergillus niger) was 200 ppm. The “Concentration needed for activity of the ingredient by itself against the broad range of microbes” value ([8]; ingredient alone, octanoyl glycine tested at neutral pH) was over 10000 ppm, the “Antimicrobial activity of the ingredient alone” value ([8]; up to 1.0% concentration, bacteria, yeast and mould) was “does not exhibit any antimicrobial activity” and the “MINIMUM INHIBITORY CONCENTRATION” value ([9]; Malassezia furfur MTCC 1374) was over 10000 ppm. The “Concentration … of Preservative Blend No 1” value ([9]; in Preservative Blend No 1 (10:10:80), Malassezia furfur) was 400 ppm and the “Concentration … of Preservative Blend No 2” value ([9]; in Preservative Blend No 2 (10:10:80), Malassezia furfur) was 400 ppm.
